Read-outs that look alike come from different tables or passages of the source. Values belong to the compound of their own block, whether it stands above or below them.
What was measured:
[1] = target: T1, hPHD-HD1 complex (hPygo1 PHD with hBCL9 HD1) (Homo sapiens, UniProt O00512+Q9Y3Y4); experiment: ITC, histone tail peptides with human PHD-HD1 complex; format: binding; details: ITC at 25 °C
T1 construct: hPygo1 PHD (amino acids 333–402); GST (N, cleaved yes); made in house; host or cells: E. coli BL21-CodonPlus(DE3)-RIL
T1 sequence (Q9Y3Y4 333-402): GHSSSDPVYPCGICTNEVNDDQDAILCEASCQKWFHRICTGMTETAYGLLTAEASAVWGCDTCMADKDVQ
T1 sequence (O00512 177-205 partner limits assumed): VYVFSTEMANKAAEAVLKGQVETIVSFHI
Method: (§1) ITC was carried out using a VP-ITC Microcal calorimeter (Microcal, Northhampton, MA, USA). Peptides were lyophilized against freshly prepared 20mM ammonium bicarbonate solution and resuspended in the ITC dialysis buffer (25mM Tris pH 8.0, 100mM NaCl and 2mM β-mercaptoethanol). Experiments were performed at 25 °C. During titration, 4-12µl aliquots of 0.5-1.0mM peptide solution was injected into a solution of 50µM protein at time intervals of 5 min. ITC data were corrected for the heat of dilution and analyzed using Origin (version 5.0) provided by the manufacturer. […]

[2] = target: T2, PHD finger from hPygo1 (hPHD) (Homo sapiens, UniProt Q9Y3Y4); experiment: ITC, histone tail peptides with free hPHD; format: binding; details: 15-mer peptides, ITC at 25 °C, pH 8.0
T2 construct: hPygo1 PHD (amino acids 333–402); GST (N, cleaved yes); made in house; host or cells: E. coli BL21-CodonPlus(DE3)-RIL
T2 sequence (Q9Y3Y4 333-402): T1 sequence (Q9Y3Y4 333-402)
Method: Free PHD fingers were purified similarly to the PHD-HD1 complexes, and purity was assessed by SDS-PAGE prior to use for ITC.
as §1

[3] = target: T3, dPHD-HD1 complex (Drosophila Pygo PHD with Lgs HD1) (Drosophila melanogaster, UniProt Q961D9+Q9V9W8); experiment: ITC, histone tail peptides with Drosophila PHD-HD1 complex; format: binding
T3 construct: Drosophila Pygo PHD (amino acids 747–808); GST (N, cleaved yes); made in house; host or cells: E. coli BL21-CodonPlus(DE3)-RIL
T3 sequence (Q9V9W8 747-808): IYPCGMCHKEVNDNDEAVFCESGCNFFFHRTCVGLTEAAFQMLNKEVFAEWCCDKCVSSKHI
T3 sequence (Q961D9 316-350 partner limits assumed): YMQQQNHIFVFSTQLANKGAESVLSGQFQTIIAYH
Method: as §1

[4] = tested on: PHD from hPygo1 (GST-hPHD); experiment: In vitro pull-down, MBP-tagged HD1 deletions with GST-hPHD; format: binding, human; details: systematic N- and C-terminal deletions of HD1, MBP-tagged
Method: Figure S2. Deletion Analysis of hBCL9 HD1 and Binding to hPygo1 PHD
(A) Systematic N- and C-terminal deletions of HD1 from hBCL9 (underlined), individually and combined (bottom); sequences between, and including, red (marking deletion end-points) were tested for their in vitro binding to PHD from hPygo1 (B), as summarized on […]
(B) In vitro pull-down assays, to test binding between MBP-tagged HD1 deletions and GST-hPHD; positive controls, Lgs HD1, hBCL9 AKV-TER; negative controls, GST, MBP-ACTN2; IP, input (5%); G, GST; PHD, GST-hPHD. […]

Compound: 9-mer H3K4me2 A1>G: 9-mer whose A1 was substituted with a glycine (A1 > G) (GRTKQTARK; dimethyl-lysine at K4)
binding (in words) ([1]; human PHD-HD1 complex, pH 8.0): reduced to almost background levels

Compound: 9-mer H3K4me2 ΔA1: truncated H3K4me2 peptide spanning R2-K9 (without A1, ΔA1) (RTKQTARK; dimethyl-lysine at K4)
binding (in words) ([1]; human PHD-HD1 complex, pH 8.0): No binding was detectable

Compound: C[C@H](N)C(=O)N[C@@H](CCCNC(=N)N)C(=O)N[C@H](C(=O)N[C@@H](CCCC[N+](C)(C)C)C(=O)N[C@@H](CCC(N)=O)C(=O)N[C@H](C(=O)N[C@@H](C)C(=O)N[C@@H](CCCNC(=N)N)C(=O)N[C@@H](CCCCN)C(=O)N[C@@H](CO)C(=O)N[C@H](C(=O)NCC(=O)NCC(=O)N[C@@H](CCCCN)C(=O)N[C@@H](C)C(=O)O)[C@@H](C)O)[C@@H](C)O)[C@@H](C)O [15-mer H3K4me3]
Kd [3]: 23 µM

Compound: V177-I205: minimal PHD-interacting fragment of HD1 from hBCL9 (VYVFSTEMANKAAEAVLKGQVETIVSFHI; HD1; UniProt O00512 177-205, looked up, fragment)
PHD binding of HD1 fragment (in words) [4]: minimal PHD-interacting fragment

Now from value to compound:

Kd ([1]; Figure 3B, hPHD-HD1, pH 8.0, 100 mM NaCl, 25 mM Tris-HCl, 10 μM ZnCl2, 2 mM β-mercaptoethanol, 50µM protein, 0.5-1.0mM peptide, one-site model, ± fitting error, read-out: Binding constant (Kd)): 11.4 ± 1.1 µM
Compound: C[C@H](N)C(=O)N[C@@H](CCCNC(=N)N)C(=O)N[C@H](C(=O)N[C@@H](CCCCN(C)C)C(=O)N[C@@H](CCC(N)=O)C(=O)N[C@H](C(=O)N[C@@H](C)C(=O)N[C@@H](CCCNC(=N)N)C(=O)N[C@@H](CCCCN)C(=O)O)[C@@H](C)O)[C@@H](C)O [9-mer H3K4me2]

Kd [2]: 9 µM
Kd ([1]; human PHD-HD1 complex, pH 8.0, read-out: Kd): 2.9 µM
Kd ([3]; Figure 3B, dPHD-HD1, ITC at 25 °C, pH 8.0, 100 mM NaCl, 25 mM Tris-HCl, 10 μM ZnCl2, 2 mM β-mercaptoethanol, 50µM protein, 0.5-1.0mM peptide, one-site model, ± fitting error, read-out: Binding constant (Kd)): 21.5 ± 0.3 µM
Compound: CNCCCC[C@H](NC(=O)[C@@H](NC(=O)[C@H](CCCNC(=N)N)NC(=O)[C@H](C)N)[C@@H](C)O)C(=O)N[C@@H](CCC(N)=O)C(=O)N[C@H](C(=O)N[C@@H](C)C(=O)N[C@@H](CCCNC(=N)N)C(=O)N[C@@H](CCCCN)C(=O)N[C@@H](CO)C(=O)N[C@H](C(=O)NCC(=O)NCC(=O)N[C@@H](CCCCN)C(=O)N[C@@H](C)C(=O)O)[C@@H](C)O)[C@@H](C)O [15-mer H3K4me1]

Kd [2]: 2.4 µM
Kd ([1]; Figure 3A panel, hPHD-HD1, 15-mer peptides, 100 mM NaCl, 25 mM Tris-HCl pH 8.0, 10 μM ZnCl2, 2 mM β-mercaptoethanol, 50µM protein, 0.5-1.0mM peptide, one-site model, ± fitting error, read-out: Kd): 0.93 ± 0.01 µM
Kd ([3]; Figure 3A panel, dPHD-HD1, 15-mer peptide, ITC at 25 °C, 100 mM NaCl, 25 mM Tris-HCl pH 8.0, 10 μM ZnCl2, 2 mM β-mercaptoethanol, 50µM protein, 0.5-1.0mM peptide, one-site model, ± fitting error, read-out: Kd): 12.6 ± 0.5 µM
Compound: C[C@H](N)C(=O)N[C@@H](CCCNC(=N)N)C(=O)N[C@H](C(=O)N[C@@H](CCCCN(C)C)C(=O)N[C@@H](CCC(N)=O)C(=O)N[C@H](C(=O)N[C@@H](C)C(=O)N[C@@H](CCCNC(=N)N)C(=O)N[C@@H](CCCCN)C(=O)N[C@@H](CO)C(=O)N[C@H](C(=O)NCC(=O)NCC(=O)N[C@@H](CCCCN)C(=O)N[C@@H](C)C(=O)O)[C@@H](C)O)[C@@H](C)O)[C@@H](C)O [15-mer H3K4me2]
